{
  "source": "patent US11970461B1",
  "about": "“1-hexyl-5-(4-methoxyphenyl)-2,4-diphenyl-1H-imidazole as an antimicrobial compound” (KING FAISAL UNIVERSITY, priority 2023, dated 2024)",
  "key": {"Escherichia coli": {"tested_on": "Escherichia coli", "assay": "antimicrobial testing by agar dilution, Escherichia coli", "format": "cell-based", "details": "after 10, 20, 40 and 60 minutes at all dilutions 1:100, 1:200, 1:400, 1:800", "procedure": "(§1) The antimicrobial properties of the 1-hexyl-5-(4-methoxyphenyl)-2,4-diphenyl-1H-imidazole was studied by the method of agar dilution. Test solutions of each compound was prepared in concentration of 1% using dimethylformamide as a solvent then they are diluted in physiological solution to obtain the final experimental dilutions 1:100, 1:200, 1:400, 1:800. The effect of these substances are compared with furacillin in a controllable study. The testing microbes used were gram positive bacteria Staphylococcus aureus, gram negative bacteria Escherichia coli, Pseudomonas aeruginosa and Candida albicans fungi were taken. The experiments used for this survey were meat-pentonlu agar (EPA) for cultivation of bacteria and Saburo environment for fungi. Each experiment used 1 ml of test solution on each plate 500 min. Add 2 drops of emulsified with microbes feel. All experimental samples were taken from the agar after 10, 20, 40, 60 minutes in the environment on the basis of Patrk planted. Bacteria were cultivated at a temperature of 37° C. for 1 day and the mushroom was kept in a thermostat for […] at a temperature of 28° C. Then the results were checked."}, "Pseudomonas aeruginosa": {"tested_on": "Pseudomonas aeruginosa", "assay": "antimicrobial testing by agar dilution, Pseudomonas aeruginosa", "format": "cell-based", "details": "after 10, 20, 40 and 60 minutes at all dilutions 1:100, 1:200, 1:400, 1:800", "procedure": "as §1"}, "Candida albicans": {"tested_on": "Candida albicans", "assay": "antimicrobial testing by agar dilution, Candida albicans", "format": "cell-based", "details": "after 10, 20, 40 and 60 minutes at all dilutions 1:100, 1:200, 1:400, 1:800", "procedure": "as §1"}, "Staphylococcus aureus": {"tested_on": "Staphylococcus aureus", "assay": "antimicrobial testing by agar dilution, Staphylococcus aureus", "format": "cell-based", "details": "after 10, 20, 40 and 60 minutes at all dilutions 1:100, 1:200, 1:400, 1:800", "procedure": "as §1"}},
  "data": [
    {"smiles": "CCCCCCn1c(-c2ccccc2)nc(-c2ccccc2)c1-c1ccc(OC)cc1", "note": "[1-hexyl-5-(4-methoxyphenyl)-2,4-diphenyl-1H-imidazole]", "values": [
      {"measurement": "inhibition activity, Escherichia coli", "setting": "Escherichia coli", "result": "higher inhibition activity"},
      {"measurement": "inhibition activity, Pseudomonas aeruginosa", "setting": "Pseudomonas aeruginosa", "result": "higher inhibition activity"},
      {"measurement": "inhibition activity, Candida albicans", "setting": "Candida albicans", "result": "higher inhibition activity"},
      {"measurement": "inhibition activity, Staphylococcus aureus", "setting": "Staphylococcus aureus", "result": "higher inhibition activity"},
      {"measurement": "melting point", "result": "161 to 162", "unit": "°C"}
    ]}
  ]
}
